Experimental data published in patent publication US9221835B2, “Spirocyclic derivatives as antiparasitic agents” (Zoetis Services LLC, priority 2012, dated 2015).
Where a name gives a salt, the structure may show the parent alone.

What was measured:
Type in all cases: in vivo
[1] = system: Mosquito (Aedes aeqypti) larvae; assay: Mosquito (Aedes aeqypti) Larval Assay; settings: first instar larvae, 25° C., 24 hours, lowest dose to inhibit motility ≧50% of untreated controls, half-log intervals, read-out: Minimum Effective Concentration (MEC)
Description: Mosquito (Aedes aeqypti) Larval Assay
Compounds were dissolved in DMSO and aliquots were spotted to empty wells. First instar mosquito larvae and maintenance media were added to the wells to obtain between 8 and 15 larvae per well in the appropriate final assay volume. Larvae were incubated in the treated media at 25° C. for 24 hours. Mosquito larvae motility was measured at 24 hours. Each compound was tested at half-log intervals, and endpoint results were recorded as Minimum Effective Concentration (MEC) in μM. MEC is an objective assessment of organism motility, and is the lowest dose to inhibit motility ≧50% of untreated controls.

[2] = system: Flea (Ctenocephalides felis); assay: Flea (Ctenocephalides felis) Membrane Feed Assay-Adult; settings: adult fleas fed on treated citrated bovine blood for 24 hours, lowest dose to cause mortality ≧50%, half-log intervals, read-out: Minimum Effective Concentration (MEC)
Description: Flea (Ctenocephalides felis) Membrane Feed Assay-Adult
Compounds were dissolved in DMSO and aliquots were added to citrated bovine blood in membrane covered wells warmed to 37° C. Adult fleas were newly emerged (3-7 days) and unfed. Feeding wells containing approximately 10 adult fleas were placed onto the treated blood wells, and the fleas were allowed to feed on the treated blood for 24 hours. […] Each compound was tested at half-log intervals, and endpoint data was recorded as Minimum Effective Concentration in μM. MEC is a subjective visual assessment of organism viability, and is the lowest dose to cause mortality ≧50%.

[3] = system: Soft Tick (Ornithidorus turicata); assay: Soft Tick (Ornithidorus turicata) Blood Feed Assay; settings: nymph stage ticks fed on treated citrated bovine blood; paralysis and/or death observed at approximately 24, 48 and 72 hours
Description: Soft Tick (Ornithidorus turicata) Blood Feed Assay
Compounds of the present invention were dissolved in dimethylsulfoxide (DMSO) and aliquots added to citrated bovine blood in a membrane covered Petri dish. The Petri dish is placed on a warming tray. Approximately 5 nymph stage ticks are placed onto the membrane, covered, and left to feed. Fed ticks are removed and placed into a Petri dish with sand. […] Endpoint data was recorded as a 100% lethal dose (LD^100) in μg/mL.

CC(C)C(=O)N1CC2(C1)OCc1cc(C3=NCC(c4cc(Cl)c(Cl)c(Cl)c4)(C(F)(F)F)C3)ccc12 (stereo not shown) [Example 2, 2-methyl-1-(5′-(3-(3,4,5-trichlorophenyl)-3-(trifluoromethyl)-3,4-dihydro-2H-pyrrol-5-yl)-3′H-spiro[azetidine-3,1′-isobenzofuran]-1-yl)propan-1-one]
minimal effective concentration [1]: 0.1 µM

CS(=O)(=O)CC(=O)N1CC2(C1)OCc1cc(C3=NCC(c4cc(Cl)c(F)c(Cl)c4)(C(F)(F)F)C3)ccc12 (stereo not shown) [Example 3, 1-(5′-(3-(3,5-dichloro-4-fluorophenyl)-3-(trifluoromethyl)-3,4-dihydro-2H-pyrrol-5-yl)-3′H-spiro[azetidine-3,1′-isobenzofuran]-1-yl)-2-(methylsulfonyl)ethanone]
minimal effective concentration [1]: 0.03 µM

CC(C)C(=O)N1CC2(C1)OCc1cc(C3=NCC(c4cc(Cl)c(F)c(Cl)c4)(C(F)(F)F)C3)ccc12 (stereo not shown) [Example 4, 1-(5′-(3-(3,5-dichloro-4-fluorophenyl)-3-(trifluoromethyl)-3,4-dihydro-2H-pyrrol-5-yl)-3′H-spiro[azetidine-3,1′-isobenzofuran]-1-yl)-2-methyl propan-1-one]
minimal effective concentration [1]: 0.1 µM

CS(=O)(=O)CC(=O)N1CC2(C1)OCc1cc(C3=NCC(c4cc(Cl)cc(Cl)c4)(C(F)(F)F)C3)ccc12 (stereo not shown) [Example 5, 1-(5′-(3-(3,5-dichlorophenyl)-3-(trifluoromethyl)-3,4-dihydro-2H-pyrrol-5-yl)-3′H-spiro[azetidine-3,1′-isobenzofuran]-1-yl)-2-(methylsulfonyl)ethanone]
minimal effective concentration [1]: 0.03 µM | minimal effective concentration [2]: 0.3 µM

CS(=O)(=O)CC(=O)N1CC2(C1)OCc1cc(C3=COC(c4cc(Cl)cc(Cl)c4)(C(F)(F)F)C3)ccc12 (stereo not shown) [Example 7, 5′-[5-(3,5-dichlorophenyl)-5-(trifluoromethyl)-4,5-dihydrofuran-3-yl]-1-[(methylsulfonyl)acetyl]-3′H-spiro[azetidine-3,1′-[2]benzofuran]]
minimal effective concentration [1]: > 3 µM

CC(C)C(=O)N1CC2(C1)OCc1cc(C3=COC(c4cc(Cl)cc(Cl)c4)(C(F)(F)F)C3)ccc12 (stereo not shown) [Example 8, 5′-[5-(3,5-dichlorophenyl)-5-(trifluoromethyl)-4,5-dihydrofuran-3-yl]-1-isobutyryl-3′H-spiro[azetidine-3,1′-[2]benzofuran]]
minimal effective concentration [1]: > 3 µM

CS(=O)(=O)CC(=O)N1CC2(C1)OCc1cc(C3=COC(c4cc(Cl)c(Cl)c(Cl)c4)(C(F)(F)F)C3)ccc12 (stereo not shown) [Example 9, 2-(methylsulfonyl)-1-(5′-(5-(3,4,5-trichlorophenyl)-5-(trifluoromethyl)-4,5-dihydrofuran-3-yl)-3′H-spiro[azetidine-3,1′-isobenzofuran]-1-yl)ethanone]
minimal effective concentration [1]: > 3 µM

CC(C)C(=O)N1CC2(C1)OCc1cc(C3=COC(c4cc(Cl)c(Cl)c(Cl)c4)(C(F)(F)F)C3)ccc12 (stereo not shown) [Example 10]
minimal effective concentration [1]: > 3 µM

CS(=O)(=O)CC(=O)N1CC2(C1)OCc1cc(C3=COC(c4cc(Cl)c(F)c(Cl)c4)(C(F)(F)F)C3)ccc12 (stereo not shown) [Example 11, 5′-[5-(3,5-dichloro-4-fluorophenyl)-5-(trifluoromethyl)-4,5-dihydrofuran-3-yl]-1-[(methylsulfonyl)acetyl]-3′H-spiro[azetidine-3,1′-[2]benzofuran]]
minimal effective concentration [1]: > 3 µM

CC(C)C(=O)N1CC2(C1)OCc1cc(C3=COC(c4cc(Cl)c(F)c(Cl)c4)(C(F)(F)F)C3)ccc12 (stereo not shown) [Example 12, 5′-[5-(3,5-dichloro-4-fluorophenyl)-5-(trifluoromethyl)-4,5-dihydrofuran-3-yl]-1-isobutyryl-3′H-spiro[azetidine-3,1′-[2]benzofuran]]
minimal effective concentration [1]: > 3 µM

CN1N=C(c2ccc3c(c2)COC32CN(C(=O)CS(C)(=O)=O)C2)CC1(c1cc(Cl)c(F)c(Cl)c1)C(F)(F)F (stereo not shown) [Example 14, 1-(5′-(5-(3,5-dichloro-4-fluorophenyl)-1-methyl-5-(trifluoromethyl)-4,5-di hydro-1H-pyrazol-3-yl)-3′H-spiro[azetidine-3,1′-isobenzofuran]-1-yl)-2-(methylsulfonyl)ethanone]
minimal effective concentration [2]: ≥ 3 µM | 100% lethal dose (LD100) [3]: 0.1 µg/mL

CC(C)C(=O)N1CC2(C1)OCc1cc(C3=NNC(c4cc(Cl)c(F)c(Cl)c4)(C(F)(F)F)C3)ccc12 (stereo not shown) [Example 15, 1-(5′-(5-(3,5-dichloro-4-fluorophenyl)-5-(trifluoromethyl)-4,5-dihydro-1H-pyrazol-3-yl)-3′H-spiro[azetidine-3,1′-isobenzofuran]-1-yl)-2-methylpropan-1-one]
minimal effective concentration [2]: ≥ 3 µM | 100% lethal dose (LD100) [3]: 0.03 µg/mL

CC(C)C(=O)N1CC2(C1)OCc1cc(C3=NN(C)C(c4cc(Cl)c(F)c(Cl)c4)(C(F)(F)F)C3)ccc12 (stereo not shown) [Example 16, 1-(5′-(5-(3,5-dichloro-4-fluorophenyl)-1-methyl-5-(trifluoromethyl)-4,5-dihydro-1H-pyrazol-3-yl)-3′H-spiro[azetidine-3,1′-isobenzofuran]-1-yl)-2-methylpropan-1-one]
minimal effective concentration [2]: 1 µM | 100% lethal dose (LD100) [3]: 0.03 µg/mL

CC(C)C(=O)N1CC2(C1)OCc1cc(C3=NNC(c4cc(Cl)c(Cl)c(Cl)c4)(C(F)(F)F)C3)ccc12 (stereo not shown) [Example 17]
minimal effective concentration [2]: ≥ 3 µM

CS(=O)(=O)CC(=O)N1CC2(C1)OCc1cc(C3=NNC(c4cc(Cl)c(Cl)c(Cl)c4)(C(F)(F)F)C3)ccc12 (stereo not shown) [Example 18, 2-(methylsulfonyl)-1-(5′-(5-(3,4,5-trichlorophenyl)-5-(trifluoromethyl)-4,5-dihydro-1H-pyrazol-3-yl)-3′H-spiro[azetidine-3,1′-isobenzofuran]-1-yl)ethanone hydrochloride]
minimal effective concentration [2]: ≥ 3 µM

CC(C)C(=O)N1CC2(C1)OCc1cc(C3=NNC(c4cc(Cl)cc(Cl)c4)(C(F)(F)F)C3)ccc12 (stereo not shown) [Example 19, 1-(5′-(5-(3,5-dichlorophenyl)-5-(trifluoromethyl)-4,5-dihydro-1H-pyrazol-3-yl)-3′H-spiro[azetidine-3,1′-isobenzofuran]-1-yl)-2-methylpropan-1-one hydrochloride]
minimal effective concentration [1]: 0.1 µM | minimal effective concentration [2]: ≥ 3 µM

CS(=O)(=O)CC(=O)N1CC2(C1)OCc1cc(C3=NNC(c4cc(Cl)cc(Cl)c4)(C(F)(F)F)C3)ccc12 (stereo not shown) [Example 20]
minimal effective concentration [1]: 0.1 µM | minimal effective concentration [2]: ≥ 3 µM

CC(C)C(=O)N1CC2(C1)OCc1cc(N3CCC(c4cc(Cl)c(F)c(Cl)c4)(C(F)(F)F)C3)ccc12 (stereo not shown) [Example 21]
minimal effective concentration [2]: ≥ 3 µM | 100% lethal dose (LD100) [3]: 0.01 µg/mL

CC(C)C(=O)N1CC2(C1)OCc1cc(N3CCC(c4cc(Cl)cc(Cl)c4)(C(F)(F)F)C3)ccc12 (stereo not shown) [Example 24]
minimal effective concentration [1]: > 3 µM | minimal effective concentration [2]: ≥ 3 µM

CC(C)C(=O)N1CC2(C1)OCc1cc(N3CCC(c4cc(Cl)c(Cl)c(Cl)c4)(C(F)(F)F)C3)ccc12 (stereo not shown) [Example 25]
minimal effective concentration [1]: > 3 µM | minimal effective concentration [2]: ≥ 3 µM

CS(=O)(=O)CC(=O)N1CC2(C1)OCc1cc(C3=NOC(c4cc(Cl)c(F)c(Cl)c4)(C(F)(F)F)O3)ccc12 (stereo not shown) [Example 27, 1-(5′-(5-(3,5-dichloro-4-fluorophenyl)-5-(trifluoromethyl)-1,4,2-dioxazol-3-yl)-3′H-spiro[azetidine-3,1′-isobenzofuran]-1-yl)-2-(methylsulfonyl)ethanone]
minimal effective concentration [1]: > 3 µM | minimal effective concentration [2]: ≥ 3 µM

CS(=O)(=O)CC(=O)N1CC2(C1)OCc1cc(C3=NOC(c4cc(Cl)cc(Cl)c4)(C(F)(F)F)O3)ccc12 (stereo not shown) [Example 29, 1-(5-(5-(3,5-dichlorophenyl)-5-(trifluoromethyl)-1,4,2-dioxazol-3-yl)-3′H-spiro[azetidine-3,1′-isobenzofuran]-1-yl)-2-(methylsulfonyl)ethanone]
minimal effective concentration [1]: > 3 µM | minimal effective concentration [2]: ≥ 3 µM

CC(C)C(=O)N1CC2(C1)OCc1cc(C3=NOC(c4cc(Cl)cc(Cl)c4)(C(F)(F)F)O3)ccc12 (stereo not shown) [Example 30, 1-(5-(5-(3,5-dichlorophenyl)-5-(trifluoromethyl)-1,4,2-dioxazol-3-yl)-3′H-spiro[azetidine-3,1′-isobenzofuran]-1-yl)-2-methylpropan-1-one]
minimal effective concentration [2]: ≥ 3 µM | 100% lethal dose (LD100) [3]: 0.3 µg/mL

CS(=O)(=O)CC(=O)N1CC2(C1)OCc1cc(C3=NOC(c4cc(Cl)c(Cl)c(Cl)c4)(C(F)(F)F)O3)ccc12 (stereo not shown) [Example 32, 2-(methylsulfonyl)-1-(5′-(5-(3,4,5-trichlorophenyl)-5-(trifluoromethyl)-1,4,2-dioxazol-3-yl)-3′H-spiro[azetidine-3,1′-isobenzofuran]-1-yl)ethanone]
minimal effective concentration [1]: > 3 µM | minimal effective concentration [2]: ≥ 3 µM
